In article PMC7719162, “Positioning of an unprecedented spiro[5.5]undeca ring system into kinase inhibitor space” (Scientific Reports, 2020):

Tests used:
PI3K (p110a(E542K)/p85a) = target: T1, PI3K (p110a(E542K)/p85a) (Homo sapiens, UniProt P42336, E542K); assay: Kinase panel assay (lipid kinase); type: biochemical; conditions: 30 μM compound, ATP 10 μM, duplicates Data 1/Data 2
T1 construct: purchased Reaction Biology Corp

AMPK(A1/B1/G3) [1] = target: T2, AMPK(A1/B1/G3) (Homo sapiens, UniProt Q13131); assay: Kinase panel assay (radiolabelled); type: biochemical; conditions: 30 μM compound, ATP 10 μM; duplicates Data 1/Data 2
T2 construct: purchased Reaction Biology Corp

AMPK(A1/B1/G3) [2] = target: T3, AMPK(A1/B1/G3) (Homo sapiens, UniProt Q13131+Q9UGI9+Q9Y478); assay: Kinase panel assay (radiolabelled); type: biochemical; conditions: 30 μM compound, ATP 10 μM; duplicates Data 1/Data 2; read-out: % Enzyme Activity (relative to DMSO controls)
T3 construct: purchased Reaction Biology Corp

PI4Ka = target: T4, PI4Ka (Homo sapiens, UniProt P42356); assay: Kinase panel assay (lipid kinase); type: biochemical; conditions: 30 μM compound, ATP 10 μM, duplicates Data 1/Data 2
T4 construct: purchased Reaction Biology Corp
T4 sequence (P42356 whole entry): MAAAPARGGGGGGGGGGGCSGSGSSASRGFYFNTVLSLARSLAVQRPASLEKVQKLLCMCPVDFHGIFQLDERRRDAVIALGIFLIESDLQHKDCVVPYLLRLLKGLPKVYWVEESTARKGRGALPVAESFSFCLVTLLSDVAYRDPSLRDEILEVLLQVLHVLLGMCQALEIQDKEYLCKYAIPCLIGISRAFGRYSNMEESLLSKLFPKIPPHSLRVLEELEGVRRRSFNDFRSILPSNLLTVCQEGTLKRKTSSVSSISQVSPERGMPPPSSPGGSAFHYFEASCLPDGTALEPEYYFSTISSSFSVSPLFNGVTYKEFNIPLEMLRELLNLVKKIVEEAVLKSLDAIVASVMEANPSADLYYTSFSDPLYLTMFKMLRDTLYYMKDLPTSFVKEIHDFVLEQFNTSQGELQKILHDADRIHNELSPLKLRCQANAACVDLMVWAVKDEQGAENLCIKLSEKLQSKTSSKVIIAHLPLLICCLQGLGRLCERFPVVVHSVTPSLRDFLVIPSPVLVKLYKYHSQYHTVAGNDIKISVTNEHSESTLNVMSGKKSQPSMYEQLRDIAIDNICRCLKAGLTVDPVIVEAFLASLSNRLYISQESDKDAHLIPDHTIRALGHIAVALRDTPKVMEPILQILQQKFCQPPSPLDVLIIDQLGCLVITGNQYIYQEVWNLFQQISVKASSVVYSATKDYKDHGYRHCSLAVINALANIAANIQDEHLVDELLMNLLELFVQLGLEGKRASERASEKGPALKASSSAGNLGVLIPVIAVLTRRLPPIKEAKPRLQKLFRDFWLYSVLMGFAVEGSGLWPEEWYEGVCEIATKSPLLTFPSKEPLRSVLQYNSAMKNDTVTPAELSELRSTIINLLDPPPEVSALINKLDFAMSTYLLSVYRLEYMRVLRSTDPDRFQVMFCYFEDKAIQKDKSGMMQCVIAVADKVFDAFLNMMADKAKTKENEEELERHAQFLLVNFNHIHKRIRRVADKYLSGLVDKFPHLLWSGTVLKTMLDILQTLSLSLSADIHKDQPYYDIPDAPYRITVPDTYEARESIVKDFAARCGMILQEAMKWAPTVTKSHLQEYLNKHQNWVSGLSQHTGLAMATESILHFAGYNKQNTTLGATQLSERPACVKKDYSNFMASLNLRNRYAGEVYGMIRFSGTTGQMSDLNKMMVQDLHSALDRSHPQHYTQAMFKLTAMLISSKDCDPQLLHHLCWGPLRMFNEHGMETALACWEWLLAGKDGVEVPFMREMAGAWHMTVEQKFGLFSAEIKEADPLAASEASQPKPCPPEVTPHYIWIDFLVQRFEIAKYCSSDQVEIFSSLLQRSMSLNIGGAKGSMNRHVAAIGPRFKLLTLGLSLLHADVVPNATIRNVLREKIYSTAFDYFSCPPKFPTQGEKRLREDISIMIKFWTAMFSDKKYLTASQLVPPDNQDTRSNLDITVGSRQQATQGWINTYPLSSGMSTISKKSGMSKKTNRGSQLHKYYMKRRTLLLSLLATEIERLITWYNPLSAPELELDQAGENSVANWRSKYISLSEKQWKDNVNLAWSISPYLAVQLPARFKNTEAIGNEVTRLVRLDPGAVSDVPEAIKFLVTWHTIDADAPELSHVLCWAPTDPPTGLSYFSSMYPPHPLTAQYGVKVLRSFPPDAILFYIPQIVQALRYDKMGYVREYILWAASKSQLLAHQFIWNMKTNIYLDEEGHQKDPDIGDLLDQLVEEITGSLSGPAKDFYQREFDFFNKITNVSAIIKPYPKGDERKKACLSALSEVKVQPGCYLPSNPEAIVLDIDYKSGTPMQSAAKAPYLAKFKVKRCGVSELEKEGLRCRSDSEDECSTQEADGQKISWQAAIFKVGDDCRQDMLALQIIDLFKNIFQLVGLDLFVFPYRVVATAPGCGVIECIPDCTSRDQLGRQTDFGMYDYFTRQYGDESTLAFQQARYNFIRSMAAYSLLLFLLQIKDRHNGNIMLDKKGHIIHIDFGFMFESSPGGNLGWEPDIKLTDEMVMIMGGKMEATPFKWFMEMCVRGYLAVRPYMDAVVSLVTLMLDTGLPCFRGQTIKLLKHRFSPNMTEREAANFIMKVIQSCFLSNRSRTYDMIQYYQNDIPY

PI3Ka (p110a/p85a) = target: T5, PI3Ka (p110a/p85a) (Homo sapiens, UniProt P42336); assay: Kinase panel assay (lipid kinase); type: biochemical; conditions: 30 μM compound, ATP 10 μM, duplicates Data 1/Data 2
T5 construct: purchased Reaction Biology Corp
T5 sequence (P42336 whole entry): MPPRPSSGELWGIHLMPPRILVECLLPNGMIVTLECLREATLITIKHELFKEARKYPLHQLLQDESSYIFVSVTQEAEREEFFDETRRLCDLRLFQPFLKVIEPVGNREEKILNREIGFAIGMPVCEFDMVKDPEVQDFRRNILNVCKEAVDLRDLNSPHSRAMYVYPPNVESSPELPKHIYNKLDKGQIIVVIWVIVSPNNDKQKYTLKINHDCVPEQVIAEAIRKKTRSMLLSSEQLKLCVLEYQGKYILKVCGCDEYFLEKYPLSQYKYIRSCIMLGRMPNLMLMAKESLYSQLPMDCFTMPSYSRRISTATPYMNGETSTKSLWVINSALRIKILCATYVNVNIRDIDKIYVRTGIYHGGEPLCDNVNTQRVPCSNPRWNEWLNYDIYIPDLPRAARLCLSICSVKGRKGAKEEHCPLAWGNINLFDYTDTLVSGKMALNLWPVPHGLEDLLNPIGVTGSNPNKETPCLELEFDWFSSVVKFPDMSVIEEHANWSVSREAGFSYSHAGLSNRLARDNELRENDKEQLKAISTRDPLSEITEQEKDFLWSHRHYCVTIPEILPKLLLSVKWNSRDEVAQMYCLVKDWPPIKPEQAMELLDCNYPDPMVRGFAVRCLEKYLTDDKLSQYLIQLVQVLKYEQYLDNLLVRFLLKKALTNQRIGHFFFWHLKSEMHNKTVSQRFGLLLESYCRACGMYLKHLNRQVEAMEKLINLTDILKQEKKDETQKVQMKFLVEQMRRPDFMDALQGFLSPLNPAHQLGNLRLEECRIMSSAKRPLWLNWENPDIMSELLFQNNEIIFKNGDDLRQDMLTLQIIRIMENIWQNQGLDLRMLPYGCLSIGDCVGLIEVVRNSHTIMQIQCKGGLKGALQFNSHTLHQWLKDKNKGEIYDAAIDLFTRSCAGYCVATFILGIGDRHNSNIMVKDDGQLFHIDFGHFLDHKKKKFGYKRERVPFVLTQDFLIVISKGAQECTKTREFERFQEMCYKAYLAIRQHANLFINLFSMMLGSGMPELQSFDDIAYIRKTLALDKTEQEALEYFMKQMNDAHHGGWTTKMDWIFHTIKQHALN
T5 sequence (P27986 whole entry partner): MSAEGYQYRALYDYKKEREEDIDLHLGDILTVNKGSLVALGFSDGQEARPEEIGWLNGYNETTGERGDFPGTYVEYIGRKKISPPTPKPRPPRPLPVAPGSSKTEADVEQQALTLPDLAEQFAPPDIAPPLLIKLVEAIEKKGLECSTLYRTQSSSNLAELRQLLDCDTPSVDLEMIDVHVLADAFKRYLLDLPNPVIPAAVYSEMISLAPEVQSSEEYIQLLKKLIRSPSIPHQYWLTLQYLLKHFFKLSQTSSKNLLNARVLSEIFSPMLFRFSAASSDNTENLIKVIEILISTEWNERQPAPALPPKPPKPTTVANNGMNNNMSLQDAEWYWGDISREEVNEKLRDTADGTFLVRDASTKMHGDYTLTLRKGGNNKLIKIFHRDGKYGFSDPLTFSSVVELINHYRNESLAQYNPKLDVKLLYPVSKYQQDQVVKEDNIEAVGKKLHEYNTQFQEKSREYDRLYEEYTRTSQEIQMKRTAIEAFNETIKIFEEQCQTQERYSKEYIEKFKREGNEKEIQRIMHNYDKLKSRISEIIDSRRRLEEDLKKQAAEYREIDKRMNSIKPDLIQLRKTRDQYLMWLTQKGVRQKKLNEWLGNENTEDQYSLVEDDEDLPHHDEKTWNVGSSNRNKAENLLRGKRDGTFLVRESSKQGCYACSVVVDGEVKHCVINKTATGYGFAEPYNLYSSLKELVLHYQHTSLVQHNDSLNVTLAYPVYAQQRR

ZIPK/DAPK3 = target: T6, ZIPK/DAPK3 (Homo sapiens, UniProt O43293); conditions: cited from earlier work
T6 construct: purchased Reaction Biology Corp
T6 sequence (O43293 whole entry): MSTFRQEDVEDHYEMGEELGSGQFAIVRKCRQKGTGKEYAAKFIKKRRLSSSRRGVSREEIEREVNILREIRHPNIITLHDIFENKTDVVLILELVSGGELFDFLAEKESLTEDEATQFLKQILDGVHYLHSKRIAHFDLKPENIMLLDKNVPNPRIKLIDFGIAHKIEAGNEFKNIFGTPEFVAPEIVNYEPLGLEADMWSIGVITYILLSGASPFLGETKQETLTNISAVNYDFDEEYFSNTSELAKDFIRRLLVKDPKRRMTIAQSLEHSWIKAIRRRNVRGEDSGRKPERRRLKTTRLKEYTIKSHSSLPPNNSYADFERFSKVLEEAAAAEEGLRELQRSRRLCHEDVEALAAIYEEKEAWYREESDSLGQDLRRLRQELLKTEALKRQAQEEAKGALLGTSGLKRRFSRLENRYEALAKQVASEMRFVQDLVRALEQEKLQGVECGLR

[3] = read-out: % Enzyme Activity (relative to DMSO controls)

T1 sequence (P42336 whole entry E542K): as the sequence (P42336 whole entry) above, with E542K counted along it
T1 sequence (P27986 whole entry partner): as the sequence (P27986 whole entry partner) above

| Structure (SMILES) | % Enzyme Activity (relative to DMSO controls) (PI3K (p110a(E542K)/p85a)) [%] | remaining activity at 30 µM (PI3K (p110a(E542K)/p85a); [3]) [%] | % Enzyme Activity (relative to DMSO controls) (AMPK(A1/B1/G3) [1]) [%] | remaining activity at 30 µM (AMPK(A1/B1/G3) [2]) [%] | % Enzyme Activity (relative to DMSO controls) (PI4Ka) [%] | remaining activity at 30 µM (PI4Ka; [3]) [%] | % Enzyme Activity (relative to DMSO controls) (PI3Ka (p110a/p85a)) [%] | remaining activity at 30 µM (PI3Ka (p110a/p85a); [3]) [%] | % Residual Activity at 30 μM (ZIPK/DAPK3) [%] |
| --- | --- | --- | --- | --- | --- | --- | --- | --- | --- |
| O=C1C=CC2(C=C1)OCC(Cc1cn(-c3cccc(Cl)c3)nn1)C(=O)N2c1ccccc1 (stereo not drawn) [2d, 3-((1-(3-Chlorophenyl)-1H-1,2,3-triazol-4-yl)methyl)-5-phenyl-1-oxa-5-azaspiro[5.5]undeca-7,10-diene-4,9-dione] | 100.20 | 103 | 100.85 | 101 | 101.50 | 101 | 250.92 | 252 |  |
| O=C1C=CC2(C=C1)OCC(Cc1cc(C(F)(F)F)cc(C(F)(F)F)c1)C(=O)N2c1ccccc1 (racemic) [1c] |  |  |  |  |  |  |  |  | 101.8 ± 0.8 |
